Experimental data from article PMC10226132, “First-in-Class Selective Inhibitors of the Lysine Acetyltransferase KAT8” (Journal of Medicinal Chemistry, 2023).

Legend:
KAT8 [1] = target: T1, KAT8 (Homo sapiens, UniProt Q9H7Z6); assay: SPR-based KAT8 binding assay; settings: immobilized KAT8, 25 °C, read-out: equilibrium dissociation constant (KD)
T1 construct: using the previously purified KAT8 (173–458, 5 nM); 6xHis tag with TEV protease cleavage site (N, cleaved yes); made in house; host or cells: E. coli BL21(DE3)
T1 sequence (Q9H7Z6 173-458): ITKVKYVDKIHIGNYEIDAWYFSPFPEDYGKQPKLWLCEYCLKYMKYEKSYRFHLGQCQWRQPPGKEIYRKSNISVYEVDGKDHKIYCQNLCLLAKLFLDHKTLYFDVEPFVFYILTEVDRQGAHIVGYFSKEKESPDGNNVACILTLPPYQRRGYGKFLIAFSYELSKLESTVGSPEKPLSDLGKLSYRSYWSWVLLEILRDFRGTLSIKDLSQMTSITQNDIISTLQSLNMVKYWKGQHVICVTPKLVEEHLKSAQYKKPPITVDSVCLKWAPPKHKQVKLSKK
Procedure: SPR analyses were performed on a Biacore 3000 optical biosensor (GE Healthcare) equipped with a research-grade CM5 sensor chip. KAT8 was immobilized (30 μg/mL in 10 mM sodium acetate, pH 4.5) at a flow rate of 10 μL/min by using a standard amine-coupling protocol to obtain a density of 12 kRU. One flow cell was left empty for background subtractions. Both compounds, dissolved in DMSO (100%), were diluted in assay buffer (150 mM NaCl, 10 mM HEPES pH 7.4, 0.005% Tween-20), always maintaining a final 1% DMSO concentration. Binding experiments were performed at 25 °C by using a flow rate of 30 μL/min, with 120 s monitoring of association and 200 s monitoring of dissociation. Regeneration of the surfaces was performed, when necessary, by a 10 s injection of 1 mM NaOH.

HT29 cells = assay: MTT cell proliferation assay, HT29; assay type: cell-based, human; settings: for antiproliferative activity in HT29: 10, 25, 50, 100 μM; for IC50: Homo sapiens, HT-29, 72 h treatment, MTT
Excerpt: Human commercially available AML U937, breast cancer MCF7, lung adenocarcinoma NCI-H460, H1299 and A-549, glioblastoma U251, B lymphocyte AHH1 cell lines were maintained in compete 10% foetal bovine serum (FBS,) RPMI 1640 (Euroclone, Milan, IT) medium. Human commercially available colon cancer HCT116 and HT29 lines and cervix adenocarcinoma HeLa cells were maintained in compete 10% FBS Dulbecco’s Modified Eagle Medium (DMEM) high glucose medium (Euroclone). L-Glutamine, FBS, and penicillin streptomycin mixture added to medium were obtained from Euroclone. All cell lines were cultured at 37 °C in a humidified atmosphere of 5% CO2:95% air and were tested for mycoplasma contamination routinely by RT-PCR.
For analysis of cell proliferation, cells were plated in sextuplicate on 96-well plates in complete media. After 24 h, cells were exposed to different drugs for 72 h. The inhibitory effect of different drugs was assessed by MTT (Sigma, St. Louis, MO, USA) colorimetric assays as previously reported.[67] Aqueous DMSO (0.5% v/v) was used as a control (untreated). The results are reported as “viability of drug-treated cells/viability of untreated cells” × 100 and represent the average ±SD of three independent experiments. IC50 values were using fitted by nonlinear regression using GraphPad Prism 8.0.

H4K16Ac in HT29 cells = assay: Western blot of H4K16Ac and KAT8 levels in HT29 cells; assay type: cell-based, human; settings: increasing concentrations, 24 h
Procedure: For WB experiments, the cells were lysed in RIPA buffer supplemented with 1× […] protease inhibitor cocktail (Sigma-Aldrich, S8830); 20 μg of total protein was resolved in 13.5% gels by SDS-PAGE. Then, the proteins were transferred to nitrocellulose membranes (Biorad Laboratories). Membranes were blocked for 1 h and incubated overnight with the appropriate primary antibody at 4 °C. After incubation, membranes were washed and incubated with the appropriate secondary antibody (Biorad Laboratories) for 1 h at room temperature. Following primary rabbit monoclonal antibodies H4K16Ac (1:1000, E2B8W, Rabbit mAb#13534, Cell Signalling Technology), KAT8 (1:1000, D5T3R Rabbit mAb #46862 Cell Signalling Technology), GAPDH (1:1000, sc-32233, Santa Cruz Biotechnologies), anti-LC3B (Sigma-Aldrich, L7543), anti-SQSTM1/p62 (Santa Cruz Biotechnology, sc-28,359), and anti-GAPDH (Santa Cruz Biotechnology, sc-32,233). Secondary antibodies: anti-mouse (Bio-Rad Laboratories, 1,706,515) or anti-rabbit (Bio-Rad Laboratories, 1,706,516) IgG-horseradish peroxidase-conjugated antibodies. Detection was performed by ECL Western Blotting Substrate (Biorad Laboratories). Images of blots were acquired through the ChemiDoc Imaging Systems (Biorad Laboratories). The band signals were quantified using ImageJ, and values were normalized to relative controls, depending on the analysis.

HCT116 cells = assay: Annexin V/PI analysis, HCT116; assay type: cell-based, human; settings: 72 h; for apoptotic effect in combination with chloroquine (Annexin V), HCT116: 100 μM compound + CQ 10 μM; for apoptotic cell population (Annexin V), HCT116: 50 and 100 μM, compared to control
Procedure: For the analysis of the progression of cells through cell cycle phases and sub-G1 peak identification, 24 h after plating, cells were treated with the different compounds. After 72 h, both floating and adherent cells were collected and fixed with cold 70% ethanol. At least 24 h after fixation, cells were incubated with 0.025 mg/mL Propidium Iodide for 15 min at room temperature and analyzed. For Annexin V analysis, 24 h after plating, cells were treated with 50 and 100 μM of the compounds. In the case of chloroquine experiments, 10 μM chloroquine (Sigma-Aldrich, A9165) was added 30 min before compounds. 72 h after treatment, both floating and adherent cells were collected and stained with an Annexin V-FITC apoptosis detection kit (ENZO #ALX-850-020-KI). Samples were incubated 15 min in the dark at rt, and 10,000 events were then analyzed.

KAT8 [2] = target: T1, KAT8; assay: Preincubation and jump-dilution analysis of KAT8 mode of inhibition; assay type: biochemical; settings: for time-dependent inhibition of KAT8 (preincubation assay): 12.5 μM inhibitor, preincubation 5-120 min; for KAT8 activity regained after inhibitor dilution (jump-dilution): 10× IC50 (121 μM for 19, 81 μM for 34), 100-fold dilution, any timepoint 10-240 min
Procedure: The preincubation assay was performed by incubating KAT8 with the relevant inhibitor (12.5 μM final concentration) for 5, 10, 20, 30, 60, and 120 min at rt. The activity of KAT8 was then measured as described in the “Radioactive KAT8 inhibition assay” paragraph of the Experimental Section. […] Fifty microliters were then incubated at rt for 10, 20, 30, 60, 120, and 240 min, and the mixtures were then processed as described in the “Radioactive KAT8 inhibition assay” paragraph of the Experimental section. Radioactive signal was normalized to the DMSO control reaction incubated for 240 min, converted in percent of KAT8 activity after 240 min, and plotted against each measurement time point. Experiments were performed in biological triplicates.

Structure (SMILES)	Kd (KAT8 [1])	decrease of cell viability, HT29 (HT29 cells; 100 μM, 72 h)	antiproliferative activity in HT29 (HT29 cells; 72 h)	IC50 (HT29 cells)	KAT8 expression level (WB) (H4K16Ac in HT29 cells)	histone H4K16 acetylation levels (WB) (H4K16Ac in HT29 cells)	apoptotic effect in combination with chloroquine (Annexin V), HCT116 (HCT116 cells)	apoptotic cell population (Annexin V), HCT116 (HCT116 cells)	time-dependent inhibition of KAT8 (preincubation assay) (KAT8 [2])	KAT8 activity regained after inhibitor dilution (jump-dilution) (KAT8 [2])
O=C(O)c1ccc(N2N=C(c3ccccc3)/C(=C/c3ccc[nH]3)C2=O)cc1 [Compound 34, (Z)-4-(4-((1H-Pyrrol-2-yl)methylene)-5-oxo-3-phenyl-4,5-dihydro-1H-pyrazol-1-yl)benzoic Acid]	2.04 ± 0.24 µM	70%	a certain degree of antiproliferative activity	54 ± 10.9 µM	no consistent variation in KAT8 levels	induced a decrease in histone H4 acetylation levels	increased the apoptotic effect	only a slight increase in apoptotic cell population	did not observe time-dependent inhibition	~90%
CC1=NN(c2ccc(C(=O)O)cc2)C(=O)/C1=C\c1ccc[nH]1 [Compound 19, (Z)-4-(4-((1H-Pyrrol-2-yl)methylene)-3-methyl-5-oxo-4,5-dihydro-1H-pyrazol-1-yl)benzoic Acid]	4.94 ± 0.18 µM	–	a certain degree of antiproliferative activity	> 100 µM	no consistent variation in KAT8 levels	induced a decrease in histone H4 acetylation levels	increased the apoptotic effect	only a slight increase in apoptotic cell population	did not observe time-dependent inhibition	~90%
